Consider one molecule from patent US20200323888A1, “INHIBITORS” (VESTLANDETS INNOVASJONSSELSKAP AS, priority 2017, published 2020).

One test deals with Naa40 (Homo sapiens, UniProt Q86UY6). Description: Nt-acetylation inhibitor assay (DTNB), Naa40. It is filed as biochemical. Conditions: calculated from IC50 with Cheng-Prusoff equation. As for the experimental part: (§1) The IC50 values for these compounds were tested as described in Foyn H, et al. (2013) “Design, Synthesis, and Kinetic Characterization of Protein N-Terminal Acetyltransferase Inhibitors”. ACS Chem Biol 8:1121-1127; and Foyn H, et al. (2017) “DTNB-Based quantification of in vitro enzymatic N-terminal acetyltransferase activity”, Methods Mol. Biol. 1574:9-15. Briefly, a colorimetric acetylation assay, 5,5′-dithiobis-(2-nitrobenzoic acid) (DTNB) assay was used to measure the catalytic activity of NATs after incubation with NAT inhibitors. […] Therefore, NTB- was quantified by measuring the absorbance at 412 nm and indirectly measures peptide Nt-acetylation. […] In order to measure CoA production, 2 mM DTNB (dissolved in 100 mM sodium phosphate dibasic pH 6.8 and 10 mM EDTA) was added to the quenched reaction and the absorbance at 412 nm was measured with a spectrophotometer (Epoc). Background absorbance (determined in negative controls) was subtracted from the absorbance determined in each individual reaction. Thiophenolate production was quantified assuming ε=13.7×103 M−1 cm−1. […] A similar Nt-acetylation reaction was performed as previously described and the enzymatic activity was quenched with a final concentration of 1% TFA and analyzed by HPLC (Evjenth R, Van Damme P, Gevaert K, Arnesen T (2013) HPLC-based Quantification of in vitro N-terminal Acetylation. Methods Mol Biol 981:95-102.). […]

A further test concerns the target Naa60 (Homo sapiens, UniProt Q9H7X0). Description: Nt-acetylation inhibitor assay (DTNB), Naa60. It is filed as biochemical. The note with it: calculated from IC50 with Cheng-Prusoff equation. As for the experimental part: as §1
In another test the target is T1, Naa30 (Homo sapiens, UniProt Q147X3).
T1 sequence (Q147X3 1-362): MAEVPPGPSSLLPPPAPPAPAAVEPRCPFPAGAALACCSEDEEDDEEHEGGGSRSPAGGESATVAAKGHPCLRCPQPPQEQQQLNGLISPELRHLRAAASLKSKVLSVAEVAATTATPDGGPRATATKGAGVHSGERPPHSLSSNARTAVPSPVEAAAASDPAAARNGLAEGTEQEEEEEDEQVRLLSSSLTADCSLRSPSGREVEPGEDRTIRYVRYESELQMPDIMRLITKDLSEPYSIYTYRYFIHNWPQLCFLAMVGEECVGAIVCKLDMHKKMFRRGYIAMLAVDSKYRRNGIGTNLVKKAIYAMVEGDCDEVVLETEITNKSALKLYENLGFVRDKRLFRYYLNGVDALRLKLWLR
The test is described as follows: Nt-acetylation inhibitor assay (DTNB), Naa30. The note with it: calculated from IC50 with Cheng-Prusoff equation. It is filed as biochemical. As for the experimental part:
as §1

A further test addresses NatB (Homo sapiens, UniProt P61599). The test is described as follows: Nt-acetylation inhibitor assay, immunoprecipitated NatB complex, HPLC quantification. It is filed as biochemical. The arrangement: endogenous in cells. The note with it: calculated from IC50 with Cheng-Prusoff equation. As to the method:
as §1

In the next test the target is T2, Naa50 (Homo sapiens, UniProt Q9GZZ1).
T2 sequence (Q9GZZ1 1-169): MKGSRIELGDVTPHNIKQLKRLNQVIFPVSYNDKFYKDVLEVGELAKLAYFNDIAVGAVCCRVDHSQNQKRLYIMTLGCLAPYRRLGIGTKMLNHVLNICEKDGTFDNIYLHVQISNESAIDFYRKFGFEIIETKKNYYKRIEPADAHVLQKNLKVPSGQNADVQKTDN
The test is described as follows: Nt-acetylation inhibitor assay (DTNB), Naa50. It is filed as biochemical. The note with it: calculated from IC50 with Cheng-Prusoff equation. As to the method:
as §1

The target in the next test is T3, NatA (Homo sapiens, UniProt P41227).
T3 construct: endogenous in cells
T3 sequence (P41227 1-235): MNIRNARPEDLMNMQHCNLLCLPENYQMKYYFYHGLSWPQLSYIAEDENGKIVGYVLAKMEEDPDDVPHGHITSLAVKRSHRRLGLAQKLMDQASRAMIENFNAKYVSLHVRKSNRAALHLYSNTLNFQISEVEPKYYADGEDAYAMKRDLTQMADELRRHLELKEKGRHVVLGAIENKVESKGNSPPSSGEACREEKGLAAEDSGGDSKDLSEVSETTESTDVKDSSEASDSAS
T3 sequence (Q9BXJ9 1-866 partner): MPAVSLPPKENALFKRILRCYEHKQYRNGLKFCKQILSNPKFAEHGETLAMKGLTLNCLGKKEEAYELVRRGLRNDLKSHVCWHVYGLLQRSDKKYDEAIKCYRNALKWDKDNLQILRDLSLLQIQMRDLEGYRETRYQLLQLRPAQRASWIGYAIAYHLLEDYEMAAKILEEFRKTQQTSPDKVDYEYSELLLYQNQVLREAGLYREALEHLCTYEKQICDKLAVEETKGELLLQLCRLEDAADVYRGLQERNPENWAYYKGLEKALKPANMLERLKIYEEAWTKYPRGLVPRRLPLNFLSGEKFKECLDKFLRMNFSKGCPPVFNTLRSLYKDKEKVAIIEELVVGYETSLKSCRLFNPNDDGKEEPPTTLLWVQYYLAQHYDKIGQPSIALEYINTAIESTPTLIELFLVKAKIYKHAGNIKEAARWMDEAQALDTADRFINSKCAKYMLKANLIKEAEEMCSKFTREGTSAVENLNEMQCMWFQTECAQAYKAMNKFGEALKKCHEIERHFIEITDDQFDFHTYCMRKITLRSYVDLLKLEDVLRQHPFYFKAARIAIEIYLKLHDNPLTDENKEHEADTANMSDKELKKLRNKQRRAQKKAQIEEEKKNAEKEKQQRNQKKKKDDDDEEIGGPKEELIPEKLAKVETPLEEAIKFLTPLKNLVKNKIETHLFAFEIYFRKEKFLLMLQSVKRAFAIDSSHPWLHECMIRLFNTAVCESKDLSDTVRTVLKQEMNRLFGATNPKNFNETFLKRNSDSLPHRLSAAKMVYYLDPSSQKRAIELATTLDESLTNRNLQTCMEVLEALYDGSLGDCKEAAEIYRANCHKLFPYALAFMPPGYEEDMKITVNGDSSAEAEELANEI
The test is described as follows: Nt-acetylation inhibitor assay, immunoprecipitated NatA complex, HPLC quantification. It is filed as biochemical. As for the experimental part: The IC50 values for these compounds were tested as described in Foyn H, et al. (2013) “Design, Synthesis, and Kinetic Characterization of Protein N-Terminal Acetyltransferase Inhibitors”. ACS Chem Biol 8:1121-1127; and Foyn H, et al. (2017) “DTNB-Based quantification of in vitro enzymatic N-terminal acetyltransferase activity”, Methods Mol. Biol. 1574:9-15. Briefly, a colorimetric acetylation assay, 5,5′-dithiobis-(2-nitrobenzoic acid) (DTNB) assay was used to measure the catalytic activity of NATs after incubation with NAT inhibitors. In the DTNB assay, thiols present in the enzymatic product, CoA, cleaves DTNB and produces 2-nitro-5-thiobenzoate (NTB-), which absorbs light with a wavelength of 412 nm. NTB- forms in a 1:1 molar ratio to the thiol groups present in the sample. Therefore, NTB- was quantified by measuring the absorbance at 412 nm and indirectly measures peptide Nt-acetylation. Recombinant purified NAT enzyme was mixed with different substrate peptides (300 uM, custom-made) and Ac-CoA (300 uM) in acetylation buffer (50 mM Tris/HEPES pH 8.5-7.4, 100 mM NaCl, 10% glycerol and 0.2 mM EDTA) and with inhibitor concentration (0-500 uM). After 30 min-60 min incubation at 37° C., the enzyme activity was quenched with quenching buffer (3.2 M guanidinium-HCl, 100 mM sodium phosphate dibasic pH 6.8). Triplicates were run for all positive samples, while negative controls were duplicated. As a negative control, reactions without enzyme were incubated at 37° C. before the reaction was quenched and added enzyme. In order to measure CoA production, 2 mM DTNB (dissolved in 100 mM sodium phosphate dibasic pH 6.8 and 10 mM EDTA) was added to the quenched reaction and the absorbance at 412 nm was measured with a spectrophotometer (Epoc). Background absorbance (determined in negative controls) was subtracted from the absorbance determined in each individual reaction. Thiophenolate production was quantified assuming ε=13.7×103 M−1 cm−1. […] A similar Nt-acetylation reaction was performed as previously described and the enzymatic activity was quenched with a final concentration of 1% TFA and analyzed by HPLC (Evjenth R, Van Damme P, Gevaert K, Arnesen T (2013) HPLC-based Quantification of in vitro N-terminal Acetylation. Methods Mol Biol 981:95-102.).
In order to ensure selectivity towards NatA, the CoA-Ac-SSNIeP (SEQ ID NO: 4) was tested against other NATs. Using the Cheng-Prusoff equation for competitive inhibitors, the dissociation constant, Ki, was calculated from IC50 values and [S]/Km ratios for all the NATs.

Another test concerns the target T4, Naa10 (Homo sapiens, UniProt P41227).
T4 sequence (P41227 1-235): T3 sequence (P41227 1-235)
Description: Nt-acetylation inhibitor assay (DTNB), Naa10. It is filed as biochemical. Conditions: Naa10; calculated from IC50 with Cheng-Prusoff equation. As for the experimental part: as §1

For a further test, the system named is zebrafish embryos. Description: Phenotype after injection into zebrafish embryos. It is filed as in vivo. The note with it: injected into zebrafish embryos; compared with reference inhibitor. The text has this:
A norleucine (Nle) residue was therefore tried in place of methionine in order to try to circumvent the synthesis problem.

Sequence of NatB (P61599 whole entry): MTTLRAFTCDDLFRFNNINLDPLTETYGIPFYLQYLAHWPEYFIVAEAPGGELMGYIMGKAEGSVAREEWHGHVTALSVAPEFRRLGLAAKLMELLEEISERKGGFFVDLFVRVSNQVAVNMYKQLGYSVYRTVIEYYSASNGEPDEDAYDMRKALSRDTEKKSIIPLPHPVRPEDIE
Sequence of NatB (Q14CX7 whole entry partner): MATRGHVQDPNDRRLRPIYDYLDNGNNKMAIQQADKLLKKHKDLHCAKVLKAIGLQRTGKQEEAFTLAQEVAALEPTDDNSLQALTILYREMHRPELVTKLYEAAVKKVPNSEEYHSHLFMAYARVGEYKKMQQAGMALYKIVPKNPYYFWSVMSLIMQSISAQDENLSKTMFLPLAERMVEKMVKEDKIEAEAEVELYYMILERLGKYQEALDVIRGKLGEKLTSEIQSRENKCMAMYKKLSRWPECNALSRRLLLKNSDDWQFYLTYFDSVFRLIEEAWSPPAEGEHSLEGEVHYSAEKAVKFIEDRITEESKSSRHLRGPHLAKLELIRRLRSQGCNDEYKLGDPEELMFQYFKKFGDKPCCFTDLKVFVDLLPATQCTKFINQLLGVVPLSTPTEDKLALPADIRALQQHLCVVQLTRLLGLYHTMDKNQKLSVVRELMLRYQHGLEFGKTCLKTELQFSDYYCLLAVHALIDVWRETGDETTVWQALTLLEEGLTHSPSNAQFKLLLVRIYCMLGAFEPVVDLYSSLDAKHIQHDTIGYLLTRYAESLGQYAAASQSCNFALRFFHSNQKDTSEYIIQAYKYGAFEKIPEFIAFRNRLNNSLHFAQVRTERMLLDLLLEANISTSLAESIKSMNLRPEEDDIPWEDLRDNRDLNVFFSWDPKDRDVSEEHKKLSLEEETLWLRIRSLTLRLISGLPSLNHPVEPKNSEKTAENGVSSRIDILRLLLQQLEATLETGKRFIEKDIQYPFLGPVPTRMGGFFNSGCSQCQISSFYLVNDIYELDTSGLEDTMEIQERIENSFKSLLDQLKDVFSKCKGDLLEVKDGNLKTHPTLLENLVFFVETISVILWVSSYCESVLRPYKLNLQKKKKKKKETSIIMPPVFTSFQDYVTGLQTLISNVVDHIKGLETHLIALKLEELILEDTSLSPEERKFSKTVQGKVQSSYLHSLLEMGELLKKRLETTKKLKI
Sequence of Naa60 (Q9H7X0 whole entry, looked up): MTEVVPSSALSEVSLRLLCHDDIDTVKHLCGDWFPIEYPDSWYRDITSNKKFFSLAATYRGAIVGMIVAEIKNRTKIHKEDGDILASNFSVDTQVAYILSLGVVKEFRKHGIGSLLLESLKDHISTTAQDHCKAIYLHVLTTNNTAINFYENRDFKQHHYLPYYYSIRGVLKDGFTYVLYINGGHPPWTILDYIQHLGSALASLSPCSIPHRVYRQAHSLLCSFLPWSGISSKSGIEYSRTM

The Ki is a measure of affinity in units of concentration, obtained from inhibition or displacement. In general, IC50 refers to the concentration needed to halve the response being measured. Read a low IC50 as inhibition by little substance. For the molecule `CCCC[C@H](NC(=O)[C@H](CO)NC(=O)[C@H](CO)NC(=O)CSCCNC(=O)CCNC(=O)C(O)C(C)(C)COP(=O)(O)OP(=O)(O)OCC1OC(n2cnc3c(N)ncnc32)C(O)C1OP(=O)(O)O)C(=O)N1CCC[C@H]1C(N)=O` (stereo partly shown) [CoA-Ac-SS(Nle)P], the Ki at Naa40 was 41.9 ± 6.4 µM; on Naa60 it was 3.1 ± 0.8 µM; on Naa30, 132 µM; on NatB, 41.6 ± 51.2 µM; on Naa50 it was 17.7 ± 7.4 µM; on NatA (NatA, calculated from IC50 with Cheng-Prusoff equation) it was 0.143 ± 0.03 µM. For the same molecule, the Ki on Naa10 is 98.9 µM. On NatA (inhibitors tested against NatA, all compounds with C-terminal amide), this molecule came in with an IC50 of 1.46 ± 0.29 µM. In addition, the “more potent towards NatA than all the other NATs tested” value on NatA (selectivity from Ki values of Table 2) is “at least 100 fold”. Also, in the test with zebrafish embryos, the phenotype in zebrafish entry was “same phenotype in zebrafish as SSMP”.
